Calls of active or inactive are those of the source. The rule behind the calls is not given here. Bridge positions count the residues as written; N and C are the ends. Peptide text beside a SMILES is read from it. I, II: the chains in the order shown.
How the values were obtained:
Frizzled-7 [1] = target: T1, Frizzled-7 (Homo sapiens, UniProt O75084); test: biochemical; assay type: cell-based, CHO
Frizzled-7 [2] = target: T1, Frizzled-7; assay type: cell-based; settings: cho
Frizzled-7 [3] = target: T1, Frizzled-7; settings: CHO
Description: Binding affinity to recombinant human Frizzled-7 (Gln33 to Leu185 residues)/human IgG1 chimeric protein expressed in CHO cells assessed as association rate constant by SPR assay

| Compound | Kd (Frizzled-7 [1]; cho, read-out: Kd) [nM] | Kd (Frizzled-7 [2]) | Ka (Frizzled-7 [3]) | Kd (Frizzled-7 [1]; cho) | Kd (Frizzled-7 [1]; read-out: Kd) [nM] |
| --- | --- | --- | --- | --- | --- |
| CSCC[C@H](NC(=O)[C@@H](CC1CCCC1)NC(=O)[C@H](Cc1cnc[nH]1)NC(=O)[C@H](CSSC[C@H](NC(=O)[C@H](Cc1c[nH]c2ccccc12)NC(=O)[C@H](Cc1ccccc1)NC(=O)[C@H](CCC(=O)O)NC(=O)[C@H](CC(C)C)NC(=O)[C@H](CC(=O)O)NC(=O)[C@H](CC(=O)O)NC(=O)[C@H](CO)NC(C)=O)C(=O)N[C@@H](Cc1cnc[nH]1)C(=O)N[C@H](CC1CCCC1)C(=O)N[C@@H](CCSC)C(=O)N[C@@H](Cc1ccc(O)cc1)C(N)=O)NC(=O)[C@H](Cc1c[nH]c2ccccc12)NC(=O)[C@H](Cc1ccccc1)NC(=O)[C@H](CCC(=O)O)NC(=O)[C@H](CC(C)C)NC(=O)[C@H](CC(=O)O)NC(=O)[C@H](CC(=O)O)NC(=O)[C@H](CO)NC(C)=O)C(=O)N[C@@H](Cc1ccc(O)cc1)C(N)=O | 14.5 | 44.1 ×10⁻³ /s | 30.4 ×10⁵ /M/s | – | – |
| CSCC[C@H](NC(=O)[C@@H](CC1CC1)NC(=O)[C@H](Cc1cnc[nH]1)NC(=O)[C@H](CSSC[C@H](NC(=O)[C@H](Cc1c[nH]c2ccccc12)NC(=O)[C@H](Cc1ccccc1)NC(=O)[C@H](CCC(=O)O)NC(=O)[C@H](CC(C)C)NC(=O)[C@H](CC(=O)O)NC(=O)[C@H](CC(=O)O)NC(=O)[C@H](CO)NC(C)=O)C(=O)N[C@@H](Cc1cnc[nH]1)C(=O)N[C@H](CC1CC1)C(=O)N[C@@H](CCSC)C(=O)N[C@@H](Cc1ccc(O)cc1)C(N)=O)NC(=O)[C@H](Cc1c[nH]c2ccccc12)NC(=O)[C@H](Cc1ccccc1)NC(=O)[C@H](CCC(=O)O)NC(=O)[C@H](CC(C)C)NC(=O)[C@H](CC(=O)O)NC(=O)[C@H](CC(=O)O)NC(=O)[C@H](CO)NC(C)=O)C(=O)N[C@@H](Cc1ccc(O)cc1)C(N)=O | 0.16 | 1.26 ×10⁻³ /s | 80.4 ×10⁵ /M/s | – | – |
| CSCC[C@H](NC(=O)[C@@H](CC1CCC1)NC(=O)[C@H](Cc1cnc[nH]1)NC(=O)[C@H](CSSC[C@H](NC(=O)[C@H](Cc1c[nH]c2ccccc12)NC(=O)[C@H](Cc1ccccc1)NC(=O)[C@H](CCC(=O)O)NC(=O)[C@H](CC(C)C)NC(=O)[C@H](CC(=O)O)NC(=O)[C@H](CC(=O)O)NC(=O)[C@H](CO)NC(C)=O)C(=O)N[C@@H](Cc1cnc[nH]1)C(=O)N[C@H](CC1CCC1)C(=O)N[C@@H](CCSC)C(=O)N[C@@H](Cc1ccc(O)cc1)C(N)=O)NC(=O)[C@H](Cc1c[nH]c2ccccc12)NC(=O)[C@H](Cc1ccccc1)NC(=O)[C@H](CCC(=O)O)NC(=O)[C@H](CC(C)C)NC(=O)[C@H](CC(=O)O)NC(=O)[C@H](CC(=O)O)NC(=O)[C@H](CO)NC(C)=O)C(=O)N[C@@H](Cc1ccc(O)cc1)C(N)=O | 0.4 | 2.13 ×10⁻³ /s | 53 ×10⁵ /M/s | – | – |
| CSCC[C@H](NC(=O)[C@@H](CC(C)(C)C)NC(=O)[C@H](Cc1cnc[nH]1)NC(=O)[C@H](CSSC[C@H](NC(=O)[C@H](Cc1c[nH]c2ccccc12)NC(=O)[C@H](Cc1ccccc1)NC(=O)[C@H](CCC(=O)O)NC(=O)[C@H](CC(C)C)NC(=O)[C@H](CC(=O)O)NC(=O)[C@H](CC(=O)O)NC(=O)[C@H](CO)NC(C)=O)C(=O)N[C@@H](Cc1cnc[nH]1)C(=O)N[C@H](CC(C)(C)C)C(=O)N[C@@H](CCSC)C(=O)N[C@@H](Cc1ccc(O)cc1)C(N)=O)NC(=O)[C@H](Cc1c[nH]c2ccccc12)NC(=O)[C@H](Cc1ccccc1)NC(=O)[C@H](CCC(=O)O)NC(=O)[C@H](CC(C)C)NC(=O)[C@H](CC(=O)O)NC(=O)[C@H](CC(=O)O)NC(=O)[C@H](CO)NC(C)=O)C(=O)N[C@@H](Cc1ccc(O)cc1)C(N)=O | 0.32 | 2.16 ×10⁻³ /s | 68.8 ×10⁵ /M/s | – | – |
| CSCC[C@H](NC(=O)[C@@H](NC(=O)[C@H](Cc1cnc[nH]1)NC(=O)[C@H](CO)NC(=O)[C@H](Cc1c[nH]c2ccccc12)NC(=O)[C@H](Cc1ccccc1)NC(=O)[C@H](CCC(=O)O)NC(=O)[C@H](CC(C)C)NC(=O)[C@H](CC(=O)O)NC(=O)[C@H](CC(=O)O)NC(=O)[C@H](CO)NC(=O)[C@@H]1CCCN1C(=O)[C@H](CC(C)C)NC(C)=O)C(C)C)C(=O)N[C@@H](Cc1ccc(O)cc1)C(N)=O (Ac-LPSDDLEFWSHVMY-NH2) | – | Not Active | inactive | Not Active | – |
| CSCC[C@H](NC(=O)[C@@H](NC(=O)[C@H](Cc1cnc[nH]1)NC(=O)[C@H](CSSC[C@H](NC(=O)[C@H](Cc1c[nH]c2ccccc12)NC(=O)[C@H](Cc1ccccc1)NC(=O)[C@H](CCC(=O)O)NC(=O)[C@H](Cc1ccccc1)NC(=O)[C@H](CC(=O)O)NC(=O)[C@H](CC(=O)O)NC(=O)[C@H](CO)NC(C)=O)C(=O)N[C@@H](Cc1cnc[nH]1)C(=O)N[C@H](C(=O)N[C@@H](CCSC)C(=O)N[C@@H](Cc1ccc(O)cc1)C(N)=O)C(C)C)NC(=O)[C@H](Cc1c[nH]c2ccccc12)NC(=O)[C@H](Cc1ccccc1)NC(=O)[C@H](CCC(=O)O)NC(=O)[C@H](Cc1ccccc1)NC(=O)[C@H](CC(=O)O)NC(=O)[C@H](CC(=O)O)NC(=O)[C@H](CO)NC(C)=O)C(C)C)C(=O)N[C@@H](Cc1ccc(O)cc1)C(N)=O (I: Ac-SDDFEFWCHVMY-NH2 / II: Ac-SDDFEFWCHVMY-NH2; disulfide I:8-II:8) | – | 62.8 ×10⁻³ /s | 5.3 ×10⁵ /M/s | – | 122 |
| CC[C@H](C)[C@H](NC(=O)[C@H](Cc1cnc[nH]1)NC(=O)[C@H](CSSC[C@H](NC(=O)[C@H](Cc1c[nH]c2ccccc12)NC(=O)[C@H](Cc1ccccc1)NC(=O)[C@H](CCC(=O)O)NC(=O)[C@H](CC(C)C)NC(=O)[C@H](CC(=O)O)NC(=O)[C@H](CC(=O)O)NC(=O)[C@H](CO)NC(C)=O)C(=O)N[C@@H](Cc1cnc[nH]1)C(=O)N[C@H](C(=O)N[C@@H](CCSC)C(=O)N[C@@H](Cc1ccc(O)cc1)C(N)=O)[C@@H](C)CC)NC(=O)[C@H](Cc1c[nH]c2ccccc12)NC(=O)[C@H](Cc1ccccc1)NC(=O)[C@H](CCC(=O)O)NC(=O)[C@H](CC(C)C)NC(=O)[C@H](CC(=O)O)NC(=O)[C@H](CC(=O)O)NC(=O)[C@H](CO)NC(C)=O)C(=O)N[C@@H](CCSC)C(=O)N[C@@H](Cc1ccc(O)cc1)C(N)=O (I: Ac-SDDLEFWCHIMY-NH2 / II: Ac-SDDLEFWCHIMY-NH2; disulfide I:8-II:8) | – | 0.96 ×10⁻³ /s | 55.1 ×10⁵ /M/s | – | 0.18 |
| CSCC[C@H](NC(=O)[C@H](CC(C)C)NC(=O)[C@H](Cc1cnc[nH]1)NC(=O)[C@H](CSSC[C@H](NC(=O)[C@H](Cc1c[nH]c2ccccc12)NC(=O)[C@H](Cc1ccccc1)NC(=O)[C@H](CCC(=O)O)NC(=O)[C@H](CC(C)C)NC(=O)[C@H](CC(=O)O)NC(=O)[C@H](CC(=O)O)NC(=O)[C@H](CO)NC(C)=O)C(=O)N[C@@H](Cc1cnc[nH]1)C(=O)N[C@@H](CC(C)C)C(=O)N[C@@H](CCSC)C(=O)N[C@@H](Cc1ccc(O)cc1)C(N)=O)NC(=O)[C@H](Cc1c[nH]c2ccccc12)NC(=O)[C@H](Cc1ccccc1)NC(=O)[C@H](CCC(=O)O)NC(=O)[C@H](CC(C)C)NC(=O)[C@H](CC(=O)O)NC(=O)[C@H](CC(=O)O)NC(=O)[C@H](CO)NC(C)=O)C(=O)N[C@@H](Cc1ccc(O)cc1)C(N)=O (I: Ac-SDDLEFWCHLMY-NH2 / II: Ac-SDDLEFWCHLMY-NH2; disulfide I:8-II:8) | – | 1.9 ×10⁻³ /s | 67.2 ×10⁵ /M/s | – | 0.28 |
